# Article PMC12122380 (2025)
# Columns and labels:
# [1] = system: Pepper (RNA, aptamer) GGCGCACUGGCGCUGCGCCUUCGGGCGCCAAUCGUAGCGUGUCGGCGCC; assay: covalent adduct formation, fluorescence; conditions: K+, Mg2+
# [2] = system: Pepper (RNA, aptamer) GGCGCACUGGCGCUGCGCCUUCGGGCGCCAAUCGUAGCGUGUCGGCGCC; assay: AE-HPLC of covalent adduct; conditions: K+ 150 mM, Mg2+ 2 mM, 50 mM MES pH 6.0, 15% DMSO, 37 °C, 50 µM ligand
# [3] = system: Pepper (RNA, aptamer) GGCGCACUGGCGCUGCGCCUUCGGGCGCCAAUCGUAGCGUGUCGGCGCC; assay: AE-HPLC, FT-ICR mass spectrometry of covalent adduct; conditions: K+ 150 mM, Mg2+ 2 mM; covalent at G41; 50 mM MES pH 6.0, 37 °C; no crosslinking without Mg2+
# [4] = system: Pepper (RNA, aptamer) GGCGCACUGGCGCUGCGCCUUCGGGCGCCAAUCGUAGCGUGUCGGCGCC; assay: fluorescence emission; conditions: K+ 100 mM, Mg2+ 2 mM; 50 mM MES pH 6.0; 0.5 µM RNA, 0.5 µM HBC; noncovalent
# [5] = system: Tt wt preQ1 RNA aptamer (RNA, riboswitch) CUGGGUCGCAGUAACCCCAGUUAACAAAACAAG; assay: AE-HPLC alkylation kinetics, Michaelis-Menten fit; conditions: K+ (KCl); covalent; apparent; MES pH 6.0, 37 °C
# [6] = system: Tt C15U preQ1 RNA aptamer (RNA, riboswitch) CUGGGUCGCAGUAAUCCCAGUUAACAAAACAAG; assay: AE-HPLC of covalent adduct; conditions: K+ 100 mM, Mg2+ 2 mM, 50 mM MES pH 6.0, 37 °C, 48 h, 125 µM ligand
# [7] = system: 155 nt (Szostak) self-biotinylating ribozyme (RNA, ribozyme) GGAGGCACCACGGCUGGAUCCGGUUUAUUAUCAUGAGCCCGACUCGGGCAGCACUGUACAUAAGCUCGGAUGCCAUAGUUUAGACACUAUGGACGUAAAGCCCAUGCUAGGCAAAGACAUUGACUGCAUGAGCGCCGCCUUGGUCAUUAGGAUCG; assay: PAGE, streptavidin blot of covalent adduct; conditions: K+ 100 mM, Mg2+ 5 mM, 50 mM HEPES pH 7.4, 37 °C, 1 mM or 50 µM ligand
# [8] = system: 58 nt (Liu) self-biotinylating ribozyme (RNA, ribozyme) GGCCGCUCCAGAAGAGGGCCCCCUUGCCCGUUAUCGGGGGCUAGGCUCGAUGUCGGCC; assay: PAGE, streptavidin blot of covalent adduct; conditions: K+ 100 mM, Mg2+ 5 mM, 50 mM HEPES pH 7.4, 37 °C, 1 mM ligand, 5 h
# [9] = system: 58 nt (Liu) self-biotinylating ribozyme (RNA, ribozyme) GGCCGCUCCAGAAGAGGGCCCCCUUGCCCGUUAUCGGGGGCUAGGCUCGAUGUCGGCC; assay: RP-HPLC of covalent adduct; conditions: K+ 100 mM, Mg2+ 5 mM, 50 mM HEPES pH 7.4, 37 °C, 2.5 mM ligand
smiles,measurement,setting,value
C=Cc1ccc(/C(C#N)=C/c2ccc(N(C)CCCOS(C)(=O)=O)cc2)cc1,binding,[1],yes
CN(CCCBr)c1ccc(/C=C(\C#N)c2ccc(C#N)cc2)cc1,binding,[2],yes
CN(CCCOS(C)(=O)=O)c1ccc(/C=C(\C#N)c2ccc(C#N)cc2)cc1,binding,[3],yes
CN(CCO)c1ccc(/C=C(\C#N)c2ccc(C#N)cc2)cc1,binding,[4],yes
Nc1nc(N)c2c(CNCCCBr)c[nH]c2n1,KM,[5],0.162 ± 0.016 µM
Nc1nc2[nH]cc(CNCCCBr)c2c(=O)[nH]1,binding,[6],yes
O=C(CI)NCCNC(=O)CCCC[C@@H]1SC[C@@H]2NC(=O)N[C@@H]21,binding,[7],yes
O=C1N[C@H]2[C@H](CS[C@H]2CCCCC(=O)OCCOCCCCBr)N1,binding,[8],yes
same,binding,[9],yes
